# pKi: −log10 of the molar value.
# Biological target: wild-type un-phosphorylated FGFR3 protein (Homo sapiens, UniProt P22607)
# Test: FGFR Enzymatic Assay (FRET detection of peptide phosphorylation)
# Type: biochemical
# Details: pre-incubated for 4 hours, read-out: FGFR3_Ki
# Procedure, shortened: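 Wild-type un-phosphorylated FGFR3, preincubated 5–15 min with inhibitor in HEPES pH 7.5/MgCl2/DTT buffer, then peptide phosphorylation for 1 hr at 25 °C (ATP Km pre-determined). Quenched with EDTA/staurosporin; Eu-PY20/APC-streptavidin FRET read; IC50 from four-parameter logistic fit.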
# Chain of wild-type un-phosphorylated FGFR3 protein (P22607 23-806): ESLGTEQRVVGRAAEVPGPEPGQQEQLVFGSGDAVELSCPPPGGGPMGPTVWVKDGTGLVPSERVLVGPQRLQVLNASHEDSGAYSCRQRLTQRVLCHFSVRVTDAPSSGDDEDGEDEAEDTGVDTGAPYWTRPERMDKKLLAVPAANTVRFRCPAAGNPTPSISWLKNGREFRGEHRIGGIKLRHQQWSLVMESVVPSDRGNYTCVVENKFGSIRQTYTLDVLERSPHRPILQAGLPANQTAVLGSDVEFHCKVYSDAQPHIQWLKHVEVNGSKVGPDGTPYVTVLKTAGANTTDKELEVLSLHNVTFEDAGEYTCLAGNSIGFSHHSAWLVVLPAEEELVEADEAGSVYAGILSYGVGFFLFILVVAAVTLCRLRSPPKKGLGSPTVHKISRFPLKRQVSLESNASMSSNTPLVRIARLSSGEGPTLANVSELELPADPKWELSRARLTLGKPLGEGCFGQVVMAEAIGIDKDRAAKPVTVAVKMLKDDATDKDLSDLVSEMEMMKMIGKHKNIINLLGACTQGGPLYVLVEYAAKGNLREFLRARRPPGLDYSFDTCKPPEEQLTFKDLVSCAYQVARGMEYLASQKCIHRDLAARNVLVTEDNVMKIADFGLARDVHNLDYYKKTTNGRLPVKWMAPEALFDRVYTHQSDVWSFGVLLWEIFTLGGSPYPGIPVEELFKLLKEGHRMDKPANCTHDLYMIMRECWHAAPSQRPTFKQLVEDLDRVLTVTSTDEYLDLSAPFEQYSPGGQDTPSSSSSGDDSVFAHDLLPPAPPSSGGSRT
row,pKi,SMILES
1,> 8.00,"CN1CCC(n2cc(-c3cnc4ccn5c(CO)c(-c6c(Cl)cccc6Cl)nc5c4c3)cn2)CC1 [Example 78, (2-(2,6-Dichlorophenyl)-9-(1-(1-methylpiperidin-4-yl)-1H-pyrazol-4-yl)imidazo[2,1-f][1,6]naphthyridin-3-yl)methanol]"
2,> 8.00,"CC(C)(CO)n1cc(-c2cnc3ccn4c(CO)c(-c5c(Cl)cccc5Cl)nc4c3c2)cn1 [Example 79, 2-(4-(2-(2,6-Dichlorophenyl)-3-(hydroxymethyl)imidazo[2,1-f][1,6]naphthyridin-9-yl)-1H-pyrazol-1-yl)-2-methylpropan-1-ol]"
3,> 8.00,"CS(=O)(=O)CCn1cc(-c2cnc3ccn4c(CO)c(-c5c(Cl)cccc5Cl)nc4c3c2)cn1 [Example 80, (2-(2,6-Dichlorophenyl)-9-(1-(2-(methylsulfonyl)ethyl)-1H-pyrazol-4-yl)imidazo[2,1-f][1,6]naphthyridin-3-yl)methanol]"
4,> 8.00,"OCc1c(-c2c(Cl)cccc2Cl)nc2c3cc(-c4cnn(CC(F)(F)F)c4)cnc3ccn12 [Example 81, (2-(2,6-Dichlorophenyl)-9-(1-(2,2,2-trifluoroethyl)-1H-pyrazol-4-yl)imidazo[2,1-f][1,6]naphthyridin-3-yl)methanol]"
5,> 8.00,"OCc1c(-c2c(Cl)cccc2Cl)nc2c3cc(-c4cnn(CCN5CCOCC5)c4)cnc3ccn12 [Example 82, (2-(2,6-Dichlorophenyl)-9-(1-(2-morpholinoethyl)-1H-pyrazol-4-yl)imidazo[2,1-f][1,6]naphthyridin-3-yl)methanol]"
6,> 8.00,"OCCn1cc(-c2cnc3ccn4c(CO)c(-c5c(Cl)cccc5Cl)nc4c3c2)cn1 [Example 83, 2-(4-(2-(2,6-Dichlorophenyl)-3-(hydroxymethyl)imidazo[2,1-f][1,6]naphthyridin-9-yl)-1H-pyrazol-1-yl)ethan-1-ol]"

# — US12552804B2, “Tricyclic heterocycles as FGFR inhibitors” (Incyte Corporation, priority 2019, dated 2026)
